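These data come from cells grown in 96-well plates and exposed to compound for 48 hours at five concentrations. Definition used: TGI = concentration required for complete inhibition of growth.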
Assays:
Assay in all cases: growth of human tumour cells (NCI), 48 h
A549 NSCLC = system: A549 NSCLC
CAKI-1 renal = system: CAKI-1 renal
COLO 205 colon = system: COLO 205 colon
HCC-2998 colon = system: HCC-2998 colon
HCT-116 colon = system: HCT-116 colon
HOP-62 NSCLC = system: HOP-62 NSCLC
KM12 colon = system: KM12 colon
LOX IMVI melanoma = system: LOX IMVI melanoma
MALME-3M melanoma = system: MALME-3M melanoma
MOLT-4 leukemia = system: MOLT-4 leukemia
NCI-H23 lung = system: NCI-H23 lung
NCI-H522 lung = system: NCI-H522 lung
NCI/ADR-RES ovarian = system: NCI/ADR-RES ovarian
OVCAR-3 ovarian = system: OVCAR-3 ovarian
OVCAR-8 ovarian = system: OVCAR-8 ovarian
RPMI-8226 leukemia = system: RPMI-8226 leukemia
SK-MEL-5 melanoma = system: SK-MEL-5 melanoma
SW-620 colon = system: SW-620 colon
UACC-257 melanoma = system: UACC-257 melanoma
UO-31 renal = system: UO-31 renal

Row | Compound | TGI (A549 NSCLC) | TGI (CAKI-1 renal) | TGI (COLO 205 colon) | TGI (HCC-2998 colon) | TGI (HCT-116 colon) | TGI (HOP-62 NSCLC) | TGI (KM12 colon) | TGI (LOX IMVI melanoma) | TGI (MALME-3M melanoma) | TGI (MOLT-4 leukemia) | TGI (NCI-H23 lung) | TGI (NCI-H522 lung) | TGI (NCI/ADR-RES ovarian) | TGI (OVCAR-3 ovarian) | TGI (OVCAR-8 ovarian) | TGI (RPMI-8226 leukemia) | TGI (SK-MEL-5 melanoma) | TGI (SW-620 colon) | TGI (UACC-257 melanoma) | TGI (UO-31 renal)
1 | COc1cc2c(cc1OC)-c1cc3ccccc3c(=O)n1CC2 | > 100 µM | 64.9 µM | > 100 µM | 50.1 µM | 33.9 µM | 37.1 µM | 53.5 µM | 27.5 µM | 61.5 µM | 97 µM | > 100 µM | 40 µM | > 100 µM | 73.3 µM | > 100 µM | 35 µM | 23.5 µM | > 100 µM | > 100 µM | > 100 µM
2 | CCOC(=O)/C(O)=C1\C(=O)N(C)C(=O)C1c1cccc(OC)c1 (stereo not given) | > 100 µM | > 100 µM | > 100 µM | > 100 µM | > 100 µM | > 100 µM | > 100 µM | > 100 µM | > 100 µM | > 100 µM | > 100 µM | > 100 µM | > 100 µM | > 82.1 µM | > 100 µM | > 100 µM | > 100 µM | > 100 µM | > 100 µM | > 100 µM
